According to US11130960B2, “Methods for conferring or enhancing herbicide resistance on plants and/or alga with protoporphyrinogen oxidase variants” (FARM HANNONG CO., LTD., priority 2014, dated 2021):
“Also recorded” adds a separate entry of the source.

Legend:
CyPPO8 = assay: Growth of transformed BT3(ΔPPO) E. coli in LB liquid medium (OD600); format: cell-based, Halothece sp. PCC 7418; details: 37° C., OD600 over culture time
Method: In Example 3, herbicide resistance of respective BT3(ΔPPO) strains transformed with the wild-type AtPPO1, mutant AtPPO1, CyPPO2, CyPPO4 or CyPPO8 gene was investigated on agar media containing different herbicides, and in this Example, herbicide resistance of the strains was investigated in LB liquid media containing different herbicides.
HV-50 autoclave from Hirayama, HS2100A electronic scale from Hansung Instrument, CB-30V clean bench from Jeio Tech, JSI-200CL incubator from JSR, MQ-200 photometer from Apogee, and 1210 type UV-visible spectrophotometer from Thermo Fisher Scientific were used. The autoclave was used under conditions of 121° C. and 15 minutes, and the incubator was used at 37° C. with lighting of 160˜200 μmol m^−2s^−1 for a culture time of 13.5 hours. The UV-visible spectrophotometer was used at 600 nm.
Tiafenacil (M.W. 511.87 g/mol), Saflufenacil (M.W. 500.85 g/mol), and Fomesafen (M.W. 438.76 g/mol) used in the experiment were purchased from Dongbu Farm Hannong Co., Ltd, Sigma, and Sigma, respectively. […]
For seed culture of E. coli transformed with respective genes, single colonies thereof were cultured in 3 ml of LB broth containing chloramphenicol for 12 hours, and they were diluted with LB broth to absorbance (OD600) of 1.5. […] Absorbance (OD600) was measured using a spectrophotometer every 1.5 hours. […]

CyPPO8 transformants = assay: Seed germination / growth on ½ MS medium containing herbicide; format: in vivo, Arabidopsis thaliana; details: for germination / growth on herbicide medium after 2 weeks: ½ MS medium with 70 nM Tiafenacil
Method: (§1) To examine tiafenacil resistance of T2 generation seeds which survived under treatment of 1 μM tiafenacil, among the CyPPO2 and CyPPO8 transformants, Arabidopsis thaliana seeds were sown in ½ MS medium (1.125 g/L of MS salt, 10 g/L of sucrose, 7 g/L of Agar) containing 70 nM tiafenacil. […] Therefore, survival under 70 nM tiafenacil means that a plant has resistance against tiafenacil.
(§2) In Arabidopsis thaliana transformant including CyPPO2 or CyPPO8 gene, which was obtained by transformation using the plant transformation vector prepared in Example 6, the PPO activity-inhibiting herbicide-resistant gene and glufosinate-resistant gene are expressed at the same time. Therefore, it was examined whether cross-treatment of Arabidopsis thaliana transformant with two herbicides, namely, PPO activity-inhibiting herbicide and glufosinate is effective for weed control. To this end, seeds of CyPPO2 and BAR gene-inserted Arabidopsis thaliana transformant, or CyPPO8 and BAR gene-inserted Arabidopsis thaliana transformant were sterilized and treated at low temperature of 4° C. for 2 days. The seeds were sown in a ½ MS medium (Duchefa), a ½MS medium containing 70 nM Tiafenacil, a ½MS medium containing 50 uM glufosinate, or a ½MS medium containing 70 nM Tiafenacil and 50 uM glufosinate, and grown at 23° C. under 16 hour-light/8 hour-dark conditions for 7-14 days. Arabidopsis thaliana on the herbicide media was CyPPO2 or CyPPO8-transformed seed and the wild-type Col0 as a control, respectively. The transformant and the control were cultured on herbicide media. After 2 weeks, they were examined.
(§3) In Example 9, it was confirmed that Arabidopsis thaliana transformant prepared in the present invention has resistance against the two PPO-based herbicides, Tiafenacil and Saflufenacil at the same time, and therefore, it was tested whether the cross-treatment of Arabidopsis thaliana transformant with Tiafenacil and Saflufenacil is effective for weed control. To this end, seeds of CyPPO2 or CyPPO8 gene-inserted Arabidopsis thaliana transformant were sterilized and treated at low temperature of 4° C. for 2 days. The seeds were sown in a ½ MS medium, a ½MS medium containing 70 nM Tiafenacil, a ½MS medium containing 70 nM Saflufenacil, or a ½MS medium containing 35 nM Tiafenacil and 35 nM Saflufenacil, and grown at 23° C. under 16 hour-light/8 hour-dark conditions for 7-14 days. Arabidopsis thaliana on the herbicide media was CyPPO2 or CyPPO8-transformed seed and the wild-type Col0 as a control, respectively. The transformant and the control were cultured on herbicide media. After 2 weeks, they were examined.

CyPPO2 transformants = assay: as above; format: in vivo, Arabidopsis thaliana; details: for germination / growth on herbicide medium after 2 weeks: ½ MS medium with 70 nM Tiafenacil
Method: as §1, §2, §3

[1] = test system: wild-type Arabidopsis thaliana (Col-0); assay: as above; format: in vivo; details: for germination / growth on herbicide medium after 2 weeks: ½ MS medium with 70 nM Tiafenacil
Method: as §1, §2, §3

[2] = test system: mutant AtPPO1 transformant; assay: Seed germination on ½ MS medium containing herbicide; format: in vivo, Arabidopsis thaliana; details: ½ MS medium containing 70 nM tiafenacil
[3] = 70 nM Saflufenacil, or 35 nM Tiafenacil and 35 nM Saflufenacil

With `CS(=O)(=O)NC(=O)c1cc(Oc2ccc(C(F)(F)F)cc2Cl)ccc1[N+](=O)[O-]` [Fomesafen] as the molecule, how does the “concentration by which the strain normally grew” value (CyPPO8) read?
Its value is at most 100 µM.

For `CC(C)N(C)S(=O)(=O)NC(=O)c1cc(-n2c(=O)cc(C(F)(F)F)n(C)c2=O)c(F)cc1Cl` [Saflufenacil], which “concentration by which the strain normally grew” value (CyPPO8) is on record?
Its value is at most 100 µM.

And the “germination / growth on herbicide medium after 2 weeks” value (“germination / growth” for short) (CyPPO8 transformants; [3])?
The value was “normally grew”.

What about the “germination / growth” value (CyPPO2 transformants; [3]) of the same molecule?
The value was “normally grew”.

And the “germination / growth” value [1, 3]?
The value was “not germinated”.

Which results are given for `COC(=O)CCNC(=O)C(C)Sc1cc(-n2c(=O)cc(C(F)(F)F)n(C)c2=O)c(F)cc1Cl` (stereo not shown) [Tiafenacil]?
germination / growth on herbicide medium after 2 weeks (CyPPO8 transformants; CyPPO8 and BAR gene-inserted, 50 uM glufosinate, or both): normally grew; seed germination (CyPPO8 transformants; ½ MS medium containing 70 nM tiafenacil, T2 generation lines no. 6, 16 and 40): showed germination; germination / growth on herbicide medium after 2 weeks (CyPPO8 transformants; [3]): normally grew; germination / growth on herbicide medium after 2 weeks (CyPPO2 transformants; CyPPO2 and BAR gene-inserted, 50 uM glufosinate, or both): normally grew; seed germination (CyPPO2 transformants; ½ MS medium containing 70 nM tiafenacil, T2 generation lines no. 1 and 49): showed germination; germination / growth on herbicide medium after 2 weeks (CyPPO2 transformants; [3]): normally grew; seed germination [2]: showed germination; seed germination ([1]; ½ MS medium containing 50 nM tiafenacil): reduced seed germination; seed germination ([1]; ½ MS medium containing 70 nM tiafenacil): no normal seed germination and was killed; also recorded: showed no germination; germination / growth on herbicide medium after 2 weeks [1, 3]: not germinated; germination / growth on herbicide medium after 2 weeks ([1]; 50 uM glufosinate, or 70 nM Tiafenacil and 50 uM glufosinate): not germinated
